This is an account of results in patent publication US12012399B2, “Microbiocidal quinoline dihydro-(thiazine)oxazine derivatives” (priority 2018, dated 2024).

A value given as a limit tells only on which side of the number the result lay.

Data set [1] relates to Mycosphaerella graminicola (Septoria tritici). Put plainly: Mycosphaerella graminicola (Septoria tritici) / liquid culture (Septoria blotch). In kind it is cell-based. As to conditions: Zymoseptoria tritici, compared to untreated control, growth inhibition determined photometrically 4-5 days after application.
Data set [2] concerns Fusarium culmorum. Put plainly: microbe, parasite or virus in culture. Type of data set: cell-based. As to conditions: read-out: control of Fusarium culmorum.
Data set [3] concerns Monographella nivalis (Microdochium nivale). In words: Monographella nivalis (Microdochium nivale) / liquid culture (foot rot cereals). In kind it is cell-based. As to conditions: compared to untreated control, growth inhibition determined photometrically 4-5 days after application.
Data set [4] deals with Botryotinia fuckeliana (Botrytis cinerea). In words: Botryotinia fuckeliana (Botrytis cinerea) / liquid culture (gray mould). Type of data set: cell-based. As to conditions: 72 h, compared to untreated control, growth inhibition determined photometrically 3-4 days after application.

Consider `CC1(C)CC(Cc2ccccc2)N=C(c2cnc3c(C#N)cccc3c2)O1` (centres unmarked) [E-2, 3-(4-benzyl-6,6-dimethyl-4,5-dihydro-1,3-oxazin-2-yl)quinoline-8-carbonitrile], for which the inhibition of growth at 20 ppm was ≥ 70% in data set [1], ≥ 80% in data set [2] and ≥ 80% in data set [3].

For `CC1(C)CC(Cc2ccccc2)N=C(c2cnc3cc(F)ccc3c2)O1` (centres unmarked) [E-32, 4-benzyl-2-(7-fluoro-3-quinolyl)-6,6-dimethyl-4,5-dihydro-1,3-oxazine], the inhibition of growth at 20 ppm in data set [1] is ≥ 70%; in data set [2] it was ≥ 80%; in data set [4] it was ≥ 80%; in data set [3] it was ≥ 80%.

In the case of `CC1(C)CC(Cc2ccccc2)N=C(c2cnc3cc(Cl)ccc3c2)O1` (centres unmarked) [E-33, 4-benzyl-2-(7-chloro-3-quinolyl)-6,6-dimethyl-4,5-dihydro-1,3-oxazine], the values for the inhibition of growth at 20 ppm in data set [1] and in data set [3] were ≥ 70% and ≥ 80%, respectively.

In turn, `CC1(C)CC(Cc2ccccc2)N=C(c2cnc3c(F)c(F)ccc3c2)O1` (centres unmarked) [F-6] gave a melting point of 102 to 105 °C.

As to `CC1(C)CC(Cc2ccccc2)N=C(c2cc3cccc(F)c3nc2Cl)O1` (centres unmarked) [E-36, 4-benzyl-2-(2-chloro-8-fluoro-3-quinolyl)-6,6-dimethyl-4,5-dihydro-1,3-oxazine], in data set [1], the inhibition of growth at 20 ppm is ≥ 70%.

Regarding `N#Cc1c(F)ccc2cc(C3=NC(Cc4ccccc4)CC4(CCCC4)O3)cnc12` (centres unmarked) [E-27, 3-(9-benzyl-6-oxa-8-azaspiro[4.5]dec-7-en-7-yl)-7-fluoro-quinoline-8-carbonitrile], the inhibition of growth at 20 ppm in data set [4] is ≥ 80%.

With `Fc1ccc2cc(C3=NC(Cc4ccccc4)CC4(CCCC4)O3)cnc2c1Cl` (centres unmarked) [E-35, 9-benzyl-7-(8-chloro-7-fluoro-3-quinolyl)-6-oxa-8-azaspiro[4.5]dec-7-ene], the melting point lay within 150 to 151 °C. Besides, the inhibition of growth at 20 ppm in data set [1] was ≥ 70%. Further, the inhibition of growth at 20 ppm in data set [4] was ≥ 80%. The inhibition of growth at 20 ppm in data set [3] is ≥ 80%.

The molecule `CC1(C)CC(Cc2ccccc2)N=C(c2cnc3c(Cl)cccc3c2)O1` (centres unmarked) [E-3, 4-benzyl-2-(8-chloro-3-quinolyl)-6,6-dimethyl-4,5-dihydro-1,3-oxazine] yielded a melting point of 150 to 152 °C. Besides, the inhibition of growth at 20 ppm in data set [1] is ≥ 70%. Further, in data set [4], the inhibition of growth at 20 ppm was ≥ 80%. Also, the inhibition of growth at 20 ppm in data set [3] is ≥ 80%.

For the molecule `CC1(CCl)CC(Cc2ccccc2)N=C(c2cnc3c(F)c(F)ccc3c2)O1` (centres unmarked) [E-1, 4-benzyl-6-(chloromethyl)-2-(7,8-difluoro-3-quinolyl)-6-methyl-4,5-dihydro-1,3-oxazine], the inhibition of growth at 20 ppm in data set [1] was ≥ 70%; in data set [2], ≥ 80%; in data set [4], ≥ 80%; in data set [3], ≥ 80%.

With `CC1(Cc2ccccc2)CC(C)(C)OC(c2cnc3c(F)cccc3c2)=N1` (centres unmarked) [F-1], the melting point is 109 to 111 °C.

Molecule `Cc1cccc2cc(C3=NC(Cc4ccccc4)CC(C)(C)O3)cnc12` (centres unmarked) [E-4, 4-benzyl-6,6-dimethyl-2-(8-methyl-3-quinolyl)-4,5-dihydro-1,3-oxazine] came in with a melting point of 120 to 122 °C. Besides, the inhibition of growth at 20 ppm in data set [1] is ≥ 70%. In addition, in data set [4], the inhibition of growth at 20 ppm was ≥ 80%. Besides, the inhibition of growth at 20 ppm in data set [3] is ≥ 80%.

Turning to `Fc1ccc2cc(C3=NC(Cc4ccccc4)CC(CI)O3)cnc2c1F` (centres unmarked) [E-26, 4-benzyl-2-(7,8-difluoro-3-quinolyl)-6-(iodomethyl)-5,6-dihydro-4H-1,3-oxazine], the melting point was in the range of 137 to 139 °C. The inhibition of growth at 20 ppm in data set [2] was ≥ 80%. For the same molecule, in data set [4], the inhibition of growth at 20 ppm is ≥ 80%.
